Source: PubChem BioAssay (NCI)
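Protocol summary: plate cells (96-well), add compound at 5 concentrations, incubate 48 h, interpolate endpoints linearly. TGI: total growth inhibition.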

How the values were obtained:
Assay in all cases: inhibition of tumour cell growth, NCI panel, 48 h
[1] = tested on: HOP-92 NSCLC
[2] = tested on: IGROV1 ovarian
[3] = tested on: SNB-75 CNS
[4] = tested on: HT29 colon
[5] = tested on: SNB-19 CNS
[6] = tested on: UO-31 renal
[7] = tested on: XF 498 CNS
[8] = tested on: RXF 393 renal
[9] = tested on: NCI-H460 lung
[10] = tested on: OVCAR-3 ovarian
[11] = tested on: UACC-257 melanoma
[12] = tested on: MALME-3M melanoma
[13] = tested on: NCI-H522 lung
[14] = tested on: SF-295 CNS
[15] = tested on: CCRF-CEM leukemia
[16] = tested on: OVCAR-5 ovarian
[17] = tested on: A498 renal
[18] = tested on: KM12 colon
[19] = tested on: A549 NSCLC
[20] = tested on: HCC-2998 colon
[21] = tested on: OVCAR-4 ovarian
[22] = tested on: LXFL 529 NSCLC
[23] = tested on: RPMI-8226 leukemia
[24] = tested on: HCT-116 colon
[25] = tested on: M19-MEL melanoma
[26] = tested on: TK-10 renal
[27] = tested on: ACHN renal
[28] = tested on: KM20L2 colon
[29] = tested on: DMS 114 small cell lung
[30] = tested on: SK-OV-3 ovarian
[31] = tested on: LOX IMVI melanoma
[32] = tested on: NCI-H23 lung
[33] = tested on: SK-MEL-2 melanoma
[34] = tested on: EKVX NSCLC
[35] = tested on: SF-268 CNS
[36] = tested on: COLO 205 colon
[37] = tested on: SNB-78 CNS
[38] = tested on: SK-MEL-28 melanoma
[39] = tested on: 786-0 renal
[40] = tested on: RXF-631 renal
[41] = tested on: SK-MEL-5 melanoma
[42] = tested on: NCI-H226 lung
[43] = tested on: CAKI-1 renal
[44] = tested on: DLD-1 colon
[45] = tested on: OVCAR-8 ovarian
[46] = tested on: SW-620 colon
[47] = tested on: K-562 leukemia
[48] = tested on: U251 CNS
[49] = tested on: M14 melanoma
[50] = tested on: MOLT-4 leukemia
[51] = tested on: HOP-62 NSCLC
[52] = tested on: SF-539 CNS
[53] = tested on: HL-60(TB) leukemia
[54] = tested on: UACC-62 melanoma
[55] = tested on: HCT-15 colon
[56] = tested on: SN12C renal
[57] = tested on: DMS 273 small cell lung
[58] = tested on: HOP-18 NSCLC

Compound: CC1=C(C(=O)Nc2cccc(C(F)(F)F)c2)C(c2ccc(O)cc2)C(C(=O)Nc2cccc(C(F)(F)F)c2)=C(C)N1
- TGI [1]: 39.3 µM
- TGI [2]: 89.2 µM
- TGI [3]: 63.9 µM
- TGI [4]: 31.7 µM
- TGI [5]: > 100 µM
- TGI [6]: 53.5 µM
- TGI [7]: 8.06 µM
- TGI [8]: 36.9 µM
- TGI [9]: 43.1 µM
- TGI [10]: 31.8 µM
- TGI [11]: 36 µM
- TGI [12]: 64.4 µM
- TGI [13]: 34.4 µM
- TGI [14]: 39.9 µM
- TGI [15]: 66.4 µM
- TGI [16]: 72.6 µM
- TGI [17]: 71.9 µM
- TGI [18]: 33.2 µM
- TGI [19]: > 100 µM
- TGI [20]: 36.3 µM
- TGI [21]: 86.6 µM
- TGI [22]: 55.3 µM
- TGI [23]: 41.2 µM
- TGI [24]: 28.1 µM
- TGI [25]: 40.3 µM
- TGI [26]: 66.6 µM
- TGI [27]: 96.2 µM
- TGI [28]: 54.6 µM
- TGI [29]: 45.8 µM
- TGI [30]: 83.4 µM
- TGI [31]: 33.1 µM
- TGI [32]: 35.8 µM
- TGI [33]: 34.6 µM
- TGI [34]: 58.6 µM
- TGI [35]: > 100 µM
- TGI [36]: 27 µM
- TGI [37]: 83.2 µM
- TGI [38]: 47.7 µM
- TGI [39]: 35.8 µM
- TGI [40]: 41.6 µM
- TGI [41]: 33.6 µM
- TGI [42]: 44.3 µM
- TGI [43]: 59.3 µM
- TGI [44]: 73.3 µM
- TGI [45]: 76.6 µM
- TGI [46]: 44 µM
- TGI [47]: 44.7 µM
- TGI [48]: 43.6 µM
- TGI [49]: 35.5 µM
- TGI [50]: 47 µM
- TGI [51]: 45.5 µM
- TGI [52]: 60.5 µM
- TGI [53]: 38.7 µM

Compound: COc1ccc(/C=C/c2cc(OC)c(O[Si](C)(C)C(C)(C)C)c(OC)c2)cc1
- TGI [1]: > 100 µM
- TGI [2]: > 100 µM
- TGI [3]: > 100 µM
- TGI [54]: > 100 µM
- TGI [4]: > 100 µM
- TGI [5]: > 100 µM
- TGI [6]: > 100 µM
- TGI [7]: > 100 µM
- TGI [9]: > 100 µM
- TGI [10]: > 100 µM
- TGI [11]: > 100 µM
- TGI [12]: > 100 µM
- TGI [13]: > 100 µM
- TGI [15]: > 100 µM
- TGI [16]: > 100 µM
- TGI [17]: > 100 µM
- TGI [18]: > 100 µM
- TGI [19]: > 100 µM
- TGI [20]: > 100 µM
- TGI [21]: > 100 µM
- TGI [22]: > 100 µM
- TGI [23]: > 100 µM
- TGI [24]: > 100 µM
- TGI [25]: > 100 µM
- TGI [27]: > 100 µM
- TGI [28]: > 100 µM
- TGI [29]: > 100 µM
- TGI [30]: > 100 µM
- TGI [32]: > 100 µM
- TGI [33]: > 100 µM
- TGI [34]: > 100 µM
- TGI [55]: > 100 µM
- TGI [35]: > 100 µM
- TGI [36]: > 100 µM
- TGI [38]: 86.6 µM
- TGI [39]: > 100 µM
- TGI [40]: > 100 µM
- TGI [41]: > 100 µM
- TGI [42]: > 100 µM
- TGI [43]: > 100 µM
- TGI [44]: > 100 µM
- TGI [56]: > 100 µM
- TGI [45]: > 100 µM
- TGI [46]: > 100 µM
- TGI [47]: > 100 µM
- TGI [48]: > 100 µM
- TGI [57]: > 100 µM
- TGI [49]: > 100 µM
- TGI [50]: > 100 µM
- TGI [51]: > 100 µM
- TGI [52]: > 100 µM

Compound: Cc1ccc(SSCCCS(=O)O)cc1
- TGI [2]: 27.4 µM
- TGI [3]: 79.5 µM
- TGI [54]: > 100 µM
- TGI [58]: > 100 µM
- TGI [4]: > 100 µM
- TGI [5]: > 100 µM
- TGI [6]: > 100 µM
- TGI [7]: > 100 µM
- TGI [8]: 72.3 µM
- TGI [9]: > 100 µM
- TGI [10]: > 100 µM
- TGI [11]: > 100 µM
- TGI [12]: > 100 µM
- TGI [13]: 37.5 µM
- TGI [14]: > 100 µM
- TGI [16]: > 100 µM
- TGI [17]: 69.9 µM
- TGI [18]: > 100 µM
- TGI [19]: > 100 µM
- TGI [20]: > 100 µM
- TGI [21]: > 100 µM
- TGI [22]: > 100 µM
- TGI [24]: > 100 µM
- TGI [25]: > 100 µM
- TGI [26]: > 100 µM
- TGI [27]: > 100 µM
- TGI [28]: > 100 µM
- TGI [29]: 37.1 µM
- TGI [30]: 85.9 µM
- TGI [31]: 32.3 µM
- TGI [32]: > 100 µM
- TGI [33]: > 100 µM
- TGI [34]: 88.5 µM
- TGI [55]: > 100 µM
- TGI [35]: 48.2 µM
- TGI [36]: 52.9 µM
- TGI [38]: > 100 µM
- TGI [39]: > 100 µM
- TGI [40]: > 100 µM
- TGI [41]: > 100 µM
- TGI [43]: > 100 µM
- TGI [44]: > 100 µM
- TGI [56]: > 100 µM
- TGI [45]: 50 µM
- TGI [46]: > 100 µM
- TGI [47]: > 100 µM
- TGI [48]: 41.2 µM
- TGI [57]: 79 µM
- TGI [49]: 96.8 µM
- TGI [50]: 50.6 µM
- TGI [51]: 78.4 µM
- TGI [52]: 40.6 µM
- TGI [53]: 6.49 µM

Compound: CC(=O)OC1(C#N)CC2OC1C1C2N1C(=O)c1ccccc1 (stereo not drawn)
- TGI [1]: > 100 µM
- TGI [2]: > 100 µM
- TGI [3]: > 100 µM
- TGI [54]: > 100 µM
- TGI [5]: > 100 µM
- TGI [6]: > 100 µM
- TGI [7]: > 100 µM
- TGI [8]: > 100 µM
- TGI [9]: > 100 µM
- TGI [12]: > 100 µM
- TGI [13]: > 100 µM
- TGI [15]: > 100 µM
- TGI [16]: > 100 µM
- TGI [17]: > 100 µM
- TGI [19]: > 100 µM
- TGI [20]: > 100 µM
- TGI [21]: > 100 µM
- TGI [22]: > 100 µM
- TGI [23]: > 100 µM
- TGI [24]: > 100 µM
- TGI [25]: > 100 µM
- TGI [26]: > 100 µM
- TGI [27]: > 100 µM
- TGI [28]: > 100 µM
- TGI [29]: > 100 µM
- TGI [30]: > 100 µM
- TGI [31]: > 100 µM
- TGI [32]: > 100 µM
- TGI [33]: > 100 µM
- TGI [34]: > 100 µM
- TGI [55]: > 100 µM
- TGI [35]: > 100 µM
- TGI [36]: > 100 µM
- TGI [37]: > 100 µM
- TGI [38]: > 100 µM
- TGI [39]: > 100 µM
- TGI [40]: > 100 µM
- TGI [41]: > 100 µM
- TGI [42]: > 100 µM
- TGI [43]: > 100 µM
- TGI [44]: > 100 µM
- TGI [56]: > 100 µM
- TGI [45]: > 100 µM
- TGI [46]: > 100 µM
- TGI [47]: > 100 µM
- TGI [48]: > 100 µM
- TGI [49]: > 100 µM
- TGI [50]: > 100 µM
- TGI [51]: > 100 µM
- TGI [52]: > 100 µM
- TGI [53]: > 100 µM
